In patent publication US20180296453A1, “Oral Care Product and Methods of Use and Manufacture Thereof” (Colgate-Palmolive Company, priority 2008, published 2018):

Experiments:
S. sanguis = assay: Ammonia production by S. sanguis at pH 4.0; format: cell-based; details: 5 millimolar, pH 4.0, 0.1% sucrose, 37° C., 30 minutes
Description: An overnight culture of S. sanguis was grown at 37° C. in trypticase soy broth (Becton Dickinson, Sparks, Md.). The culture was centrifuged at 5,000 rpm for 5 minutes at 1 milliliter at a time into preweighed tubes in order to accumulate approximately 5 milligrams of wet pellet weight. The pellet was then resuspended into 20 millimolar potassium phosphate buffer (JT Baker, Phillipsburg, N.J.), pH 4.0, to simulate a stressed environment for the bacterial cell where ammonia would be produced for survival. The final concentration was 5 milligram per milliliter. To this final concentration, a 5 millimolar final concentration of L-arginine, L-citrulline, or L-ornithine was added along with a 0.1% final concentration of sucrose (VWR, West Chester, Pa.). This mixture was then incubated at 37° C. in a shaking water bath for 30 minutes before ammonia production was determined.
In order to analyze for ammonia, an Ammonia Assay kit was used from Diagnostic Chemicals Limited (Oxford, Conn.). The intended use of this specific kit is for the in vitro quantification of ammonia in plasma, but the procedure was modified in order to determine and quantify the ammonia production in plaque and/or bacteria.

[1] = cited from earlier work

| Structure (SMILES) | Ammonia (S. sanguis; Mean of 6 trials) [ppm] | Ammonia (S. sanguis; Trial 1) [ppm] | Ammonia (S. sanguis; Trial 2) [ppm] | Ammonia (S. sanguis; Trial 3) [ppm] | Ammonia (S. sanguis; Trial 4) [ppm] | Ammonia (S. sanguis; Trial 5) [ppm] | Ammonia (S. sanguis; Trial 6) [ppm] | solubility in water (in words) [1] |
| --- | --- | --- | --- | --- | --- | --- | --- | --- |
| N=C(N)NCCC[C@H](N)C(=O)O [L-Arginine, L-arginine] | 1.06 | 0.509 | 0.866 | 2.20 | 1.62 | 0.5 | 0.679 |  |
| NC(=O)NCCC[C@H](N)C(=O)O [L-Citrulline, L-citrulline] | 0.951 | 0.185 | 0.346 | 0.332 | 0.194 | 0.226 | 0.951 |  |
| NCCC[C@H](N)C(=O)O [L-Ornithine, L-ornithine] | 0.134 | 0.185 | 0.260 | 0.047 | 0.0 | 0.181 | 0.135 |  |
| Oc1cc(Cl)ccc1Oc1ccc(Cl)cc1Cl [triclosan, 5-chloro-2-(2,4-dichlorophenoxy)phenol] |  |  |  |  |  |  |  | only slightly soluble in water |
